Experimental data published in ChEMBL document CHEMBL1135474, “Synthesis and antitumor activity of 1,5,6-substituted E-3-(2-chloro-3-indolylmethylene)-1,3-dihydroindol-2-ones” (J Med Chem, 2002).

Columns and labels:
NCI-H460 = assay: Cytotoxic effect on human NCI-H460 lung cancer cell line as percentage growth after inoculation at 10e-4 M; type: functional
SF-268 = assay: Cytotoxic effect on human SF-268 glioma cancer cell line as percentage growth after inoculation at 10e-4 M; type: functional
MCF7 = assay: Cytotoxic effect on human MCF-7 breast cancer cell line as percentage growth at 10e-4 M; type: functional
[1] = target: Cyclin-dependent kinase 1/cyclin B (Homo sapiens, UniProt P06493); assay: Inhibition of Cyclin-dependent kinase 1-cyclin B; type: protein-complex assay
[2] = test system: Panel melanoma (Carcinoma cell lines); assay: Inhibition of proliferation in NCI human melanoma tumor cell lines; type: functional
[3] = test system: Panel colon (Carcinoma cell lines); assay: Cytostatic effect on human colon tumor cell lines; type: functional
[4] = test system: Panel renal (Carcinoma cell lines); assay: Cytotoxic effect on human renal tumor cell lines; type: functional
[5] = test system: Panel colon (Carcinoma cell lines); assay: Cytotoxic effect on human colon tumor cell lines; type: functional
[6] = test system: Panel colon (Carcinoma cell lines); assay: Inhibition of proliferation in NCI human colon tumor cell lines; type: functional
[7] = test system: Panel CNS (Carcinoma cell lines); assay: Cytotoxic effect on human CNS tumor cell lines; type: functional
[8] = test system: Panel CNS (Carcinoma cell lines); assay: Cytostatic effect on human CNS tumor cell lines; type: functional
[9] = test system: Panel renal (Carcinoma cell lines); assay: Inhibition of proliferation in NCI human renal tumor cell lines; type: functional
[10] = test system: Panel prostate (Carcinoma cell lines); assay: Cytostatic effect on human prostate tumor cell lines; type: functional
[11] = test system: Panel CNS (Carcinoma cell lines); assay: Inhibition of proliferation in NCI human CNS tumor cell lines; type: functional
[12] = Cytotoxic effect on 60 human tumor cell line panel, MG-MID represents mean value; type: functional
NSCLC [13] = assay: Cytostatic effect on human non-small cell lung carcinoma tumor cell lines; type: functional
[14] = test system: Panel melanoma (Carcinoma cell lines); assay: Cytostatic effect on human melanoma tumor cell lines; type: functional
[15] = test system: Panel renal (Carcinoma cell lines); assay: Cytostatic effect on human renal tumor cell lines; type: functional
[16] = test system: Panel breast (Carcinoma cell lines); assay: Cytostatic effect on human breast tumor cell lines; type: functional
NSCLC [17] = assay: Inhibition of proliferation in NCI human non-small cell lung tumor cell lines; type: functional
[18] = test system: Panel melanoma (Carcinoma cell lines); assay: Cytotoxic effect on human melanoma tumor cell lines; type: functional
[19] = test system: Panel leukemia (Carcinoma cell lines); assay: Cytotoxic effect on human leukemia tumor cell lines; type: functional
[20] = test system: Panel ovarian (Carcinoma cell lines); assay: Cytostatic effect on human ovarian tumor cell lines; type: functional
[21] = Inhibition of proliferation in NCI 60 human tumor cell line panel, MG-MID represents mean value; type: functional
[22] = Cytostatic effect on 60 human tumor cell line panel, MG-MID represents mean value; type: functional
[23] = test system: Panel breast (Carcinoma cell lines); assay: Inhibition of proliferation in NCI human breast tumor cell lines; type: functional
[24] = test system: Panel leukemia (Carcinoma cell lines); assay: Cytostatic effect on human leukemia tumor cell lines; type: functional
[25] = test system: Panel prostate (Carcinoma cell lines); assay: Cytotoxic effect on human prostate tumor cell lines; type: functional
[26] = test system: Panel prostate (Carcinoma cell lines); assay: Inhibition of proliferation in NCI human prostate tumor cell lines; type: functional
[27] = test system: Panel ovarian (Carcinoma cell lines); assay: Inhibition of proliferation in NCI human ovarian tumor cell lines; type: functional
[28] = test system: Panel leukemia (Carcinoma cell lines); assay: Inhibition of proliferation in NCI human leukemia tumor cell lines; type: functional
[29] = test system: Panel ovarian (Carcinoma cell lines); assay: Cytotoxic effect on human ovarian tumor cell lines; type: functional
[30] = test system: Panel breast (Carcinoma cell lines); assay: Cytotoxic effect on human breast tumor cell lines; type: functional

| Compound | Growth (NCI-H460) | Growth (SF-268) | Growth (MCF7) | GI50 [2] | logTGI [3] | LC50 [4] | LC50 [5] | GI50 [6] | LC50 [7] | logTGI [8] | GI50 [9] | logTGI [10] | GI50 [11] | LC50 [12] | logTGI (NSCLC [13]) | logTGI [14] | logTGI [15] | logTGI [16] | GI50 (NSCLC [17]) | LC50 [18] | further results |
| --- | --- | --- | --- | --- | --- | --- | --- | --- | --- | --- | --- | --- | --- | --- | --- | --- | --- | --- | --- | --- | --- |
| COc1cc2c(cc1C)NC(=O)/C2=C/c1c(Cl)n(-c2ccccc2)c2ccccc12 | 5% | 51% | 8% | – | – | – | – | – | – | – | – | – | – | – | – | – | – | – | – | – | – |
| COc1cc2c(cc1C)NC(=O)/C2=C/c1c(Cl)[nH]c2ccccc12 | -35% | -48% | -35% | – | – | – | – | – | – | – | – | – | – | – | – | – | – | – | – | – | IC50 [1]: 20 µM |
| COc1cc2c(/C=C3/C(=O)Nc4ccccc43)c(Cl)[nH]c2cc1C | -39% | -30% | -54% | 0.126 µM | -5.1 log M | -4.3 | -4.6 | 0.0794 µM | -4.4 | -5.6 log M | 0.2 µM | -4.8 log M | 0.0794 µM | -4.3 | -4.7 log M | -5 log M | -4.7 log M | -5.3 log M | 0.126 µM | -4.6 | LC50 [19]: -4.1; logTGI [20]: -5.2 log M; GI50 [21]: 0.1 µM; logTGI [22]: -5 log M; GI50 [23]: 0.1 µM; logTGI [24]: -4.7 log M; LC50 [25]: -4.4; GI50 [26]: 0.126 µM; GI50 [27]: 0.0794 µM; GI50 [28]: 0.0631 µM; LC50 [29]: -4.4 |
| COc1cc2c(cc1C)NC(=O)/C2=C/c1c(Cl)n(C)c2ccccc12 | -50% | -14% | 3% | – | – | – | – | – | – | – | – | – | – | – | – | – | – | – | – | – | – |
| COc1ccc2c(c1)/C(=C\c1c(Cl)n(-c3ccccc3)c3ccccc13)C(=O)N2 | -28% | 12% | -6% | – | – | – | – | – | – | – | – | – | – | – | – | – | – | – | – | – | – |
| COc1ccc2[nH]c(Cl)c(/C=C3/C(=O)Nc4cc(C)c(OC)cc43)c2c1 | -23% | -54% | -23% | – | – | – | – | – | – | – | – | – | – | – | – | – | – | – | – | – | IC50 [1]: 30 µM |
| O=C1/C(=C/c2c(Cl)[nH]c3ccccc23)c2ccccc2N1c1ccccc1 | -1% | 6% | -3% | – | – | – | – | – | – | – | – | – | – | – | – | – | – | – | – | – | – |
| COc1cc2c(/C=C3/C(=O)N(c4ccccc4)c4ccccc43)c(Cl)[nH]c2cc1C | -10% | 1% | 1% | 3.16 µM | -4.7 log M | -4.1 | -4.2 | 2.51 µM | -4.2 | -4.7 log M | 3.98 µM | -4.9 log M | 3.16 µM | -4.1 | -4.5 log M | -4.9 log M | -4.4 log M | -5 log M | 3.16 µM | -4.3 | LC50 [19]: -4; logTGI [20]: -4.8 log M; GI50 [21]: 3.16 µM; logTGI [22]: -4.7 log M; GI50 [23]: 2.51 µM; logTGI [24]: -4.4 log M; LC50 [25]: -4; GI50 [26]: 3.16 µM; GI50 [27]: 2.51 µM; GI50 [28]: 2.51 µM; LC50 [29]: -4.3 |
| O=C1Nc2ccccc2/C1=C\c1c(Cl)[nH]c2ccc(O)cc12 | -82% | -34% | -69% | – | – | – | – | – | – | – | – | – | – | – | – | – | – | – | – | – | IC50 [1]: 30 µM |
| COc1ccc2[nH]c(Cl)c(/C=C3/C(=O)N(c4ccccc4)c4ccccc43)c2c1 | 2% | 15% | 3% | – | – | – | – | – | – | – | – | – | – | – | – | – | – | – | – | – | – |
| COc1cc2c(/C=C3/C(=O)N(C)c4ccccc43)c(Cl)[nH]c2cc1C | -18% | -1% | 4% | 0.631 µM | -5 log M | -4 | -4.2 | 0.316 µM | -4.5 | -5.6 log M | 2 µM | -4.7 log M | 0.2 µM | -4.1 | -5 log M | -4.6 log M | -4.2 log M | -5.1 log M | 0.794 µM | -4 | LC50 [19]: -4; logTGI [20]: -5.2 log M; GI50 [21]: 0.398 µM; logTGI [22]: -4.9 log M; GI50 [23]: 0.158 µM; logTGI [24]: -4.6 log M; LC50 [25]: -4; GI50 [26]: 0.398 µM; GI50 [27]: 0.316 µM; GI50 [28]: 0.251 µM; LC50 [29]: -4.3 |
| COc1ccc2c(c1)/C(=C\c1c(Cl)[nH]c3cc(C)c(OC)cc13)C(=O)N2 | -48% | -44% | -54% | 1 µM | -5 log M | -4.3 | -4.4 | 1 µM | -4.7 | -5.2 log M | 2 µM | -5.1 log M | 0.794 µM | -4.3 | -4.8 log M | -5 log M | -4.8 log M | -5 log M | 2.51 µM | -4.5 | LC50 [19]: -4.2; logTGI [20]: -5.3 log M; GI50 [21]: 1 µM; logTGI [22]: -5 log M; GI50 [23]: 1 µM; logTGI [24]: -5.1 log M; LC50 [25]: -4.4; GI50 [26]: 1.26 µM; GI50 [27]: 0.794 µM; GI50 [28]: 0.501 µM; LC50 [29]: -4.3 |
| O=C1Nc2ccccc2/C1=C\c1c(Cl)n(-c2ccccc2)c2ccccc12 | -16% | -17% | 8% | – | – | – | – | – | – | – | – | – | – | – | – | – | – | – | – | – | – |
| CC[C@]1(O)C[C@H]2CN(CCc3c([nH]c4ccccc34)[C@@](C(=O)OC)(c3cc4c(cc3OC)N(C=O)[C@H]3[C@@](O)(C(=O)OC)[C@H](OC(C)=O)[C@]5(CC)C=CCN6CC[C@]43[C@@H]65)C2)C1.O=S(=O)(O)O [VINCRISTINE SULFATE] | – | – | – | 0.158 µM | -5.4 | -3.6 | -4.1 | 0.1 µM | -3.7 | -5.2 | 0.316 µM | -5.2 | 0.126 µM | -3.6 | -4.8 log M | -5.1 log M | -4.7 | -5.1 | 0.251 µM | -3.6 | LC50 [19]: -3.2; logTGI [20]: -4.7; GI50 [21]: 0.2 µM; LC50 [30]: -3.5; logTGI [22]: -5; GI50 [23]: 0.316 µM; logTGI [24]: -4.8; LC50 [25]: -3.5; GI50 [26]: 0.126 µM; GI50 [27]: 0.316 µM; GI50 [28]: 0.1 µM; LC50 [29]: -3.5 |
